Consider three molecules from US5063224A, “R-cefuroxime axetil” (priority 1990, dated 1991).

In brackets after ≈: the same amount, converted by molar mass.

Series [1] in a line: physchem. It is filed as physicochemical. The settings on record: organic solvent or mixture. The protocol:
The substantially pure R-cefuroxime axetil of this invention is prepared by selectively solubilizing the R-isomer in a solvent in which the S-isomer is only minimally soluble relative to the R-isomer. Solvents commonly employed are those in which the R-isomer is about six times more soluble in a given volume than the S-isomer. […] Generally, a mixture of R and S-cefuroxime axetil, prepared as described in GB 2,145,409A, and containing the R and S-isomers, is added to a solvent to form a slurry. The best results are obtained employing a solvent that provides sufficient solubility to maintain the desired volume at a minimum. Preferred solvents include alcohols such as methanol and ethanol. […] In isopropanol at 25° C., the R-isomer is 1.84 mg/ml, and the S-isomer is 0.44 mg/ml. In n-butanol at 25° C., the R-isomer is 1.0 mg/ml and the S-isomer is 0.3 mg/ml. In ethyl acetate at 25° C., the R-isomer is 13.42 mg/ml, and the S-isomer is 10.0 mg/ml.

Series [2] deals with esterase enzymes in blood serum. As to the kind of experiment: Hydrolysis by esterase enzymes in dog blood serum (Example 5). It counts as in vitro ADME. The protocol:
The following study was conducted to establish that S-cefuroxime axetil is hydrolyzed to cefuroxime acid much more rapidly by esterase enzymes in blood serum than the R-cefuroxime axetil of this invention.
Blood serum was obtained from an 11.5 kg male dog two days prior to sacrifice. The whole blood was centrifuged for fifteen minutes at 3500 rpm and 4° C. The serum thus collected was diluted with ten parts Sorenson's phosphate buffer pH 7.4.
A solution was prepared by dissolving 0.29 mg of R-cefuroxime axetil in 50 ml of Sorenson's phosphate buffer pH 7.4. Another solution was prepared by dissolving 0.26 mg of S-cefuroxime acetil in 50 ml of Sorenson's phosphate buffer pH 7.4.
Triplicate test tubes containing 2.75 ml of the R-cefuroxime axetil solution, and triplicate tubes containing 2.75 ml of the S-cefuroxime axetil solution, were each heated to 37° C. and diluted with 0.25 ml of the serum preparation from above. Aliquot portions (200 μl each) from each tube were drawn at thirty minute intervals, diluted with 100 μl of 10% aqueous trichloracetic acid, and 100 μl of acetonitrile. The samples were centrifuged at 3000 rpm for five minutes to precipitate the proteins, and then transferred to autosampler tubes for determination of cefuroxime free acid content. Analysis was conducted using a Beckman 344 gradient high performance liquid chromatography column packed with zorbox C18 reverse phase, with an eluant comprised of 40 parts methanol and 60 parts water. Standard integration of HPLC curves were carried out to convert the area to a mg/ml equivalent.

Series [3] can be described thus: Microbiological assay of biological potency (Example 2 product). Particulars: product with 85% by weight R- and 15% S-cefuroxime axetil.
Series [4] in a line: Hydrolysis in dog gut cell (intestine) preparation (Example 6). It counts as in vitro ADME. As for the experimental part:
About 18 inches of intestine was removed from a 13 month old male dog weighing 11.5 kg. The intestine section was washed several times with Sorenson's solution, and then sliced open lengthwise. The intestine cells were collected by scraping the inner surface of the intestine with a glass microscope slide, and provided 6.10 g of cell tissue. The cell tissue was placed in 30.5 ml of Sorenson's pH 7.5 phosphate buffer. The mixture was homogenized for 30 seconds with a Tek-Mar tissuemizer. The resulting suspension was centrifuged at 4° C. at 3500 rpm for 15 minutes.
Following the general procedure of Example 2, 0.277 mg of R-cefuroxime axetil was dissolved in 50 ml of Sorenson's pH 7.4 buffer, and 0.263 mg of S-cefuroxime axetil was dissolved in 50 ml of Sorenson's pH 7.4 buffer.
Triplicate tubes of 2.75 ml of the R-cefuroxime axetil solution, and triplicate tubes of the S-cefuroxime axetil solution, were allowed to equilibrate to 37° C., and then 0.25 ml of the intestine mixture from above was added to each tube. Aliquot samples were withdrawn every 30 minutes for two hours, and each 200 μl of 10% aqueous trichloroacetic acid and 100 μl of acetonitrile. […] The assays were analyzed for unchanged R- or S-cefuroxime axetil and afforded the following results.

For series [5] the following is noted: oral administration; cited from earlier work.

As usually defined, the solubility is the dissolved amount per volume that the medium holds. Take `CO/N=C(\C(=O)N[C@@H]1C(=O)N2C(C(=O)O[C@H](C)OC(C)=O)=C(COC(N)=O)CS[C@H]12)c1ccco1` [R-cefuroxime axetil]: the solubility in series [1] (ethanol) worked out at 12000 µg/mL (≈ 23.5 mM); in series [1] (ethyl acetate), 13400 µg/mL (≈ 26.3 mM); in series [1] (isopropanol), 1840 µg/mL (≈ 3.6 mM); in series [1] (methanol) it was 391000 µg/mL (≈ 767 mM); in series [1] (n-butanol), 1000 µg/mL (≈ 1.96 mM). Moreover, the “half-life (in words)” value in series [2] is reported as “longer half-life”. Further, in series [3], the biological potency was found to be 99%.

Consider `CO/N=C(\C(=O)N[C@@H]1C(=O)N2C(C(=O)O[C@@H](C)OC(C)=O)=C(COC(N)=O)CS[C@H]12)c1ccco1` [S-cefuroxime axetil, reference compound], for which the solubility was approximately 2980 µg/mL (≈ 5.84 mM) in series [1] (ethanol); 10000 µg/mL (≈ 19.6 mM) in series [1] (ethyl acetate); 440 µg/mL (≈ 0.862 mM) in series [1] (isopropanol); 90000 µg/mL (≈ 176 mM) in series [1] (methanol); 300 µg/mL (≈ 0.588 mM) in series [1] (n-butanol). The “hydrolysis rate relative to R-cefuroxime axetil in blood serum” value in series [2] was “about 25 fold”. Further, the “hydrolysis in blood serum (in words)” value in series [2] (vs R-cefuroxime axetil) is reported as “hydrolyzed much more rapidly”. In addition, the “hydrolysis rate relative to R-cefuroxime axetil in intestinal preparations” value in series [4] is given as “about 3 fold”. In addition, the “hydrolysis in the dog gut (in words)” value in series [4] (vs R-cefuroxime axetil) is listed as “hydrolyzed much more rapidly”.

For `CO/N=C(\C(=O)N[C@@H]1C(=O)N2C(C(=O)OC(C)OC(C)=O)=C(COC(N)=O)CS[C@H]12)c1ccco1` (mixture of isomers) [R,S-mixture of cefuroxime axetil, 1-acetoxyethyl ester of cefuroxime], the “bioavailability of the cefuroxime antibiotic” value in series [5] is “about fifty”.
